Assay results from ChEMBL document CHEMBL1146524, “Isolation of homodolastatin 16, a new cyclic depsipeptide from a Kenyan collection of Lyngbya majuscula” (J Nat Prod, 2003).
Values after ≈ are worked out from the molar mass of the structure shown. Starred links: 1 amine or outer side, 2 acyl side, 3 side chain; linkers in the order of their positions; H or OH if unused. Non-standard residues stand in square brackets, D forms with d. Residues, ends and D or L forms follow the SMILES beside them. X1 = CC(Cc1ccccc1)C(N[*:1])C(=O)[*:2]; X2 = CC(C)C(N[*:1])C(C)C(=O)[*:2]; dNMeV = CN[C@@H](C(=O)O)C(C)C; dHiv = CC(C)[C@@H](O)C(=O)O; Lac = C[C@H](O)C(=O)O

Legend:
NCI-H460 = experiment: Cytotoxicity against human NCI-H460 cells after 48 hrs by MTT method; type: functional; conditions: NCI-H460, 48 h
KM-20L2 = experiment: Cytotoxicity against human KM20L2 cells after 48 hrs by MTT method; type: functional; conditions: KM-20L2, 48 h
SF-295 = experiment: Cytotoxicity against human SF295 cells after 48 hrs by MTT method; type: functional; conditions: SF-295, 48 h
SK-MEL-5 = experiment: Cytotoxicity against human SK-MEL-5 cells after 48 hrs by MTT method; type: functional; conditions: SK-MEL-5, 48 h
[1] = Cytotoxicity against human WHCO1 cells after 48 hrs by MTT method; type: functional, cell-based; conditions: WHCO1, 48 h
[2] = Cytotoxicity against human WHCO6 cells after 48 hrs by MTT method; type: functional, cell-based; conditions: WHCO6, 48 h
ME-180 = experiment: Cytotoxicity against human ME180 cells after 48 hrs by MTT method; type: functional, cell-based; conditions: ME-180, 48 h

In the case of `CC(C)C1NC(=O)[C@@H]2CCCN2C(=O)C(C(C)Cc2ccccc2)NC(=O)[C@@H]2CCCN2C(=O)[C@@H](C(C)C)N(C)C(=O)[C@@H](C(C)C)OC(=O)[C@@H]2CCCN2C(=O)[C@H](C)OC(=O)C1C` (some centres not stated) [DOLASTATIN 16] (cyclo([Lac]P[dHiv][dNMeV]P[X1]P[X2])), the GI50 (NCI-H460) is reported as 0.96 ng/mL (≈ 1.09 nM), the GI50 (KM-20L2) is reported as 1.2 ng/mL (≈ 1.37 nM) and the GI50 (SF-295) is reported as 5.2 ng/mL (≈ 5.92 nM). For the same compound, the GI50 (SK-MEL-5) was 3.3 ng/mL (≈ 3.75 nM).

`CC[C@H](C)[C@H]1C(=O)N2CCC[C@H]2C(=O)NC(C(C)Cc2ccccc2)C(=O)N2CCC[C@H]2C(=O)NC(C(C)C)C(C)C(=O)OC(C)C(=O)N2CCC[C@H]2C(=O)O[C@H](C(C)C)C(=O)N1C` (some centres not stated) [HOMODOLASTATIN 16] showed an IC50 [1] of 4300 ng/mL (≈ 4810 nM), an IC50 [2] of 10100 ng/mL (≈ 11300 nM) and an IC50 (ME-180) of 8300 ng/mL (≈ 9290 nM).
